Experimental data as given in the NIST ThermoML archive (doi:10.1021/je700236c).
Several values for one entry are separate records, joined by “and”; a condition that tells them apart may be missing. Equal entries are not always repeated.

Conditions: Gas, Buoyancy - hydrostatic balance with magnetic suspension - two sinkers

CC(F)(F)F [1,1,1-trifluoroethane]
Conditions	mass density
283.15 K, 203.6 kPa	7.588 kg/m3 and 7.589 kg/m3
283.15 K, 399.9 kPa	15.605 kg/m3
283.15 K, 505.8 kPa	20.278 kg/m3 and 20.282 kg/m3
283.15 K, 605 kPa	24.935 kg/m3 and 24.932 kg/m3
283.15 K, 651.6 kPa	27.227 kg/m3
283.15 K, 651.7 kPa	27.238 kg/m3
283.15 K, 700.8 kPa	29.729 kg/m3 and 29.728 kg/m3
283.15 K, 750.8 kPa	32.363 kg/m3 and 32.361 kg/m3
283.15 K, 781.5 kPa	34.03 kg/m3
283.15 K, 781.6 kPa	34.039 kg/m3
283.15 K, 801.7 kPa	35.15 kg/m3
283.15 K, 801.8 kPa	35.164 kg/m3
283.15 K, 820.2 kPa	36.196 kg/m3
283.15 K, 820.3 kPa	36.205 kg/m3
293.15 K, 201.7 kPa	7.219 kg/m3
293.15 K, 201.8 kPa	7.222 kg/m3
293.15 K, 400.3 kPa	14.916 kg/m3 and 14.915 kg/m3
293.15 K, 599.3 kPa	23.356 kg/m3 and 23.36 kg/m3
293.15 K, 701.3 kPa	28.031 kg/m3 and 28.028 kg/m3
293.15 K, 798.2 kPa	32.729 kg/m3 and 32.732 kg/m3
293.15 K, 898.7 kPa	37.925 kg/m3 and 37.921 kg/m3
293.15 K, 951 kPa	40.774 kg/m3
293.15 K, 999.6 kPa	43.532 kg/m3
293.15 K, 1030.9 kPa	45.365 kg/m3 and 45.355 kg/m3
293.15 K, 1048.7 kPa	46.429 kg/m3
293.15 K, 1048.8 kPa	46.429 kg/m3
293.15 K, 1071 kPa	47.788 kg/m3
293.15 K, 1071.1 kPa	47.784 kg/m3
293.15 K, 1089 kPa	48.896 kg/m3 and 48.901 kg/m3
303.15 K, 200 kPa	6.895 kg/m3 and 6.903 kg/m3
303.15 K, 400.9 kPa	14.305 kg/m3 and 14.313 kg/m3
303.15 K, 600.3 kPa	22.265 kg/m3
303.15 K, 600.4 kPa	22.265 kg/m3
303.15 K, 801.6 kPa	31.034 kg/m3 and 31.031 kg/m3
303.15 K, 1001 kPa	40.662 kg/m3 and 40.666 kg/m3
303.15 K, 1099.9 kPa	45.879 kg/m3 and 45.88 kg/m3
303.15 K, 1197.3 kPa	51.364 kg/m3 and 51.363 kg/m3
303.15 K, 1249.2 kPa	54.458 kg/m3
303.15 K, 1299.5 kPa	57.578 kg/m3 and 57.581 kg/m3
303.15 K, 1340.6 kPa	60.231 kg/m3 and 60.229 kg/m3
303.15 K, 1369.8 kPa	62.181 kg/m3 and 62.183 kg/m3
303.15 K, 1401.5 kPa	64.363 kg/m3 and 64.364 kg/m3
303.15 K, 1423.7 kPa	65.925 kg/m3
303.15 K, 1423.9 kPa	65.952 kg/m3
313.15 K, 201.5 kPa	6.696 kg/m3
313.15 K, 201.8 kPa	6.718 kg/m3
313.15 K, 205.1 kPa	6.831 kg/m3 and 6.828 kg/m3
313.15 K, 206.2 kPa	6.869 kg/m3
313.15 K, 401.6 kPa	13.776 kg/m3
313.15 K, 401.7 kPa	13.775 kg/m3
313.15 K, 600.3 kPa	21.275 kg/m3 and 21.282 kg/m3
313.15 K, 800.3 kPa	29.41 kg/m3 and 29.413 kg/m3
313.15 K, 999.1 kPa	38.197 kg/m3 and 38.204 kg/m3
313.15 K, 1200.3 kPa	47.988 kg/m3 and 48.002 kg/m3
313.15 K, 1400.2 kPa	58.893 kg/m3 and 58.909 kg/m3
313.15 K, 1500.8 kPa	64.963 kg/m3 and 64.977 kg/m3
313.15 K, 1540.9 kPa	67.443 kg/m3 and 67.442 kg/m3
313.15 K, 1598 kPa	71.29 kg/m3
313.15 K, 1598.1 kPa	71.312 kg/m3
313.15 K, 1648.3 kPa	74.652 kg/m3 and 74.647 kg/m3
313.15 K, 1701.3 kPa	78.498 kg/m3 and 78.51 kg/m3
313.15 K, 1740.8 kPa	81.517 kg/m3 and 81.508 kg/m3
313.15 K, 1771.1 kPa	83.916 kg/m3 and 83.908 kg/m3
313.15 K, 1793.2 kPa	85.73 kg/m3
313.15 K, 1794.4 kPa	85.811 kg/m3
